Experimental data as given in ChEMBL document CHEMBL1201862, “PubChem BioAssay data set” (2004).
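The compound was tested at five concentrations on cells cultured in 96-well plates, with a 48-hour exposure period. Abbreviation: GI50, concentration required for 50% inhibition of growth.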 Activity calls are given as the source filed them. No stated cut-off is given here; in the data, active = GI50 up to about 1.1 µM and inactive = higher.

Tests used:
Experiment in all cases: NCI-60 cell line screen, 48 h
SK-MEL-2 = test system: SK-MEL-2
A498 = test system: A498
IGROV-1 = test system: IGROV-1
COLO 205 = test system: COLO 205
M19-MEL = test system: M19-MEL
HCT-15 = test system: HCT-15
CCRF-CEM = test system: CCRF-CEM
NCI-H460 = test system: NCI-H460
SK-MEL-28 = test system: SK-MEL-28
HL-60 = test system: HL-60
HCC 2998 = test system: HCC 2998
HOP-62 = test system: HOP-62
786-0 = test system: 786-0
KM12 = test system: KM12
OVCAR-8 = test system: OVCAR-8
NCI/ADR-RES = test system: NCI/ADR-RES
DU-145 = test system: DU-145
Hs-578T = test system: Hs-578T
MDA-MB-435 = test system: MDA-MB-435
PC-3 = test system: PC-3

| SMILES | GI50 (SK-MEL-2) | GI50 (A498) | GI50 (IGROV-1) | GI50 (COLO 205) | GI50 (M19-MEL) | GI50 (HCT-15) [µM] | GI50 (CCRF-CEM) | GI50 (NCI-H460) | GI50 (SK-MEL-28) | GI50 (HL-60) | GI50 (HCC 2998) | GI50 (HOP-62) | GI50 (786-0) | GI50 (KM12) | GI50 (OVCAR-8) | GI50 (NCI/ADR-RES) | GI50 (DU-145) | GI50 (Hs-578T) | GI50 (MDA-MB-435) | GI50 (PC-3) |
| --- | --- | --- | --- | --- | --- | --- | --- | --- | --- | --- | --- | --- | --- | --- | --- | --- | --- | --- | --- | --- |
| C[C@]12CCCC(=O)C1(O)C[C@H](C(=O)O)CC2 (some centres undefined) | > 100 µM (inactive) | > 100 µM (inactive) | > 100 µM (inactive) | > 100 µM (inactive) | > 100 µM (inactive) | > 100 | > 100 µM (inactive) | > 100 µM (inactive) | > 100 µM (inactive) | > 100 µM (inactive) | > 100 µM (inactive) | > 100 µM (inactive) | > 100 µM (inactive) | > 100 µM (inactive) | > 100 µM (inactive) |  |  |  |  |  |
| O=c1c2ccccc2nc(-c2ccccc2)n1NC1OC(CO)C(O)C(O)C1O (centres undefined) | > 100 µM (inactive) | > 100 µM (inactive) | > 100 µM (inactive) | > 100 µM (inactive) | > 100 µM (inactive) | > 100 | > 100 µM (inactive) | > 100 µM (inactive) | > 100 µM (inactive) | > 100 µM (inactive) | > 100 µM (inactive) | > 100 µM (inactive) | > 100 µM (inactive) | > 100 µM (inactive) | > 100 µM (inactive) |  |  |  |  |  |
| CC#CC1C2CCCC1(CSc1ccccc1)NC(=O)O2 (centres undefined) | > 100 µM (inactive) | > 100 µM (inactive) | > 100 µM (inactive) | > 100 µM (inactive) | > 100 µM (inactive) | > 100 |  | > 100 µM (inactive) |  | > 100 µM (inactive) | > 100 µM (inactive) | > 100 µM (inactive) | > 100 µM (inactive) | > 100 µM (inactive) | > 100 µM (inactive) |  |  |  |  |  |
| Cc1ccc(NC(=O)CC2SC(Nc3cccc(Cl)c3C)=NC2=O)cc1 (centres undefined) | 44.6 µM (inactive) | 33 µM (inactive) | 94.8 µM (inactive) | 64.7 µM (inactive) | 71 µM (inactive) | 76.9 | 32.1 µM (inactive) | 96.6 µM (inactive) | 40.9 µM (inactive) |  | 99.8 µM (inactive) | > 100 µM (inactive) | > 100 µM (inactive) | 40.9 µM (inactive) | 40.6 µM (inactive) |  |  |  |  |  |
| OC1(c2ccccc2)OC(C#Cc2ccccc2)(c2ccccc2)c2ccccc21 (centres undefined) |  | 2.82 µM (inactive) | 11 µM (inactive) | 2.31 µM (inactive) | 3.23 µM (inactive) | 3.44 | 2.73 µM (inactive) | 4.47 µM (inactive) |  | 2.58 µM (inactive) |  | 15.4 µM (inactive) | 3.73 µM (inactive) | 1.59 µM (inactive) | 2.45 µM (inactive) |  |  |  |  |  |
| NC(=O)c1ccc([N+](=O)[O-])cc1 | > 100 µM (inactive) | > 100 µM (inactive) | > 100 µM (inactive) | > 100 µM (inactive) | > 100 µM (inactive) | > 100 | > 100 µM (inactive) | > 100 µM (inactive) | > 100 µM (inactive) |  | > 100 µM (inactive) | > 100 µM (inactive) | > 100 µM (inactive) | > 100 µM (inactive) | > 100 µM (inactive) |  |  |  |  |  |
| COc1ccc(OC)c(NC(=O)C(=O)NNC(=O)c2sc(NNC(C)=O)nc2C)c1 | 43 µM (inactive) | 8.3 µM (inactive) | 53.5 µM (inactive) |  | 60.1 µM (inactive) | 31 | 16.9 µM (inactive) | 30.8 µM (inactive) | 61.2 µM (inactive) | 36.2 µM (inactive) | 45.1 µM (inactive) | 92.9 µM (inactive) | 35.6 µM (inactive) | 39.4 µM (inactive) | 34.9 µM (inactive) |  |  |  |  |  |
| Cn1nc(-c2ccccc2)c(C(=O)/C=C/c2ccc(F)cc2)c(N2CCCC2)c1=O |  |  | 21.4 µM (inactive) | 15.1 µM (inactive) | 15.1 µM (inactive) | 12.2 | 5.36 µM (inactive) | 21.7 µM (inactive) | 16 µM (inactive) | 0.644 µM (active) |  |  | 13 µM (inactive) |  | 15.1 µM (inactive) |  |  |  |  |  |
| COc1ccc(CCc2cc(OC)c(O)c(OC)c2)cc1 | 53 µM (inactive) |  | > 100 µM (inactive) | > 100 µM (inactive) | 57.1 µM (inactive) |  | 77.1 µM (inactive) | 82 µM (inactive) | 19.6 µM (inactive) |  | 52 µM (inactive) | 98.6 µM (inactive) | > 100 µM (inactive) | 58.2 µM (inactive) | > 100 µM (inactive) |  |  |  |  |  |
| CC1Nc2ccccc2NC1C=C(C#N)C#N (centres undefined) | 21.3 µM (inactive) |  | 18.1 µM (inactive) | 18.7 µM (inactive) | 15 µM (inactive) | 17.4 | 2.72 µM (inactive) | 19.4 µM (inactive) | 16.6 µM (inactive) | 1.85 µM (inactive) | 18.4 µM (inactive) | 20.4 µM (inactive) | 16 µM (inactive) | 16.5 µM (inactive) | 7.76 µM (inactive) |  |  |  |  |  |
| Cc1ccccc1-n1c(C)nc2c1C(=O)c1ccccc1C2=O | > 100 µM (inactive) | > 100 µM (inactive) |  |  | 22.8 µM (inactive) | 34.8 | 50.2 µM (inactive) | 36.1 µM (inactive) | > 100 µM (inactive) | 20.9 µM (inactive) | 37.1 µM (inactive) | > 100 µM (inactive) | 44.8 µM (inactive) | 58.9 µM (inactive) | 47.9 µM (inactive) |  |  |  |  |  |
| c1cc2[se][se]c3c4cccc5[se][se]c(c(c1)c23)c54 | > 100 µM (inactive) | > 100 µM (inactive) | > 100 µM (inactive) | > 100 µM (inactive) | > 100 µM (inactive) |  | > 100 µM (inactive) | > 100 µM (inactive) | > 100 µM (inactive) | > 100 µM (inactive) |  | > 100 µM (inactive) | > 100 µM (inactive) | > 100 µM (inactive) | > 100 µM (inactive) |  |  |  |  |  |
| CCOC(=O)c1cc2c(OCc3ccccc3)c(OC)cc3c2c(n1)N(c1ccc(OC)cc1)C(C)C3 (centres undefined) | > 50 µM (inactive) | > 50 µM (inactive) | > 50 µM (inactive) | > 50 µM (inactive) | > 50 µM (inactive) | > 50 | > 50 µM (inactive) | 49.9 µM (inactive) | > 50 µM (inactive) | 45.6 µM (inactive) | 44.4 µM (inactive) | > 50 µM (inactive) | > 50 µM (inactive) |  | > 50 µM (inactive) |  |  |  |  |  |
| O=c1c2ccccc2nc(-c2ccccc2)n1NC(=S)Nc1ccc(Cl)cc1[N+](=O)[O-] | > 100 µM (inactive) | 94 µM (inactive) | > 100 µM (inactive) | 51.5 µM (inactive) | 54.1 µM (inactive) | 35 | 62.4 µM (inactive) | > 100 µM (inactive) | 21.7 µM (inactive) | 35.3 µM (inactive) |  | 77.3 µM (inactive) | > 100 µM (inactive) | 66.4 µM (inactive) | > 100 µM (inactive) |  |  |  |  |  |
| COC(=O)C1=C(CO)C2C=CC1C2 (centres undefined) | > 100 µM (inactive) | > 100 µM (inactive) | > 100 µM (inactive) | > 100 µM (inactive) | > 100 µM (inactive) | > 100 | > 100 µM (inactive) | > 100 µM (inactive) |  | > 100 µM (inactive) | > 100 µM (inactive) | > 100 µM (inactive) | > 100 µM (inactive) | > 100 µM (inactive) | > 100 µM (inactive) |  |  |  |  |  |
| COc1cccc(Nc2nc(N)nc(N)c2N)c1 | > 100 µM (inactive) | > 100 µM (inactive) | 35.1 µM (inactive) | 34.4 µM (inactive) |  | 36.9 | 18.5 µM (inactive) | 20 µM (inactive) | > 100 µM (inactive) | 24.2 µM (inactive) | 98.2 µM (inactive) | 29.3 µM (inactive) | 39.7 µM (inactive) | > 100 µM (inactive) | 65.2 µM (inactive) | > 100 µM (inactive) | > 100 µM (inactive) | > 100 µM (inactive) | 39.7 µM (inactive) | 99.8 µM (inactive) |
| CC(=O)C1Cn2c(nc3ccccc32)C[Se]1 (centres undefined) |  | 17.7 µM (inactive) | 2.22 µM (inactive) | 16.5 µM (inactive) | 1.99 µM (inactive) | 4.56 | 3.49 µM (inactive) | 4.15 µM (inactive) | 2.98 µM (inactive) | 2.47 µM (inactive) | 10.3 µM (inactive) | 2.37 µM (inactive) | 3.32 µM (inactive) | 3.4 µM (inactive) | 4.09 µM (inactive) |  |  |  |  |  |
| Nc1ccc2c(c1)N(C(=O)CCCC(=O)N1CC(CCl)c3ccc(N)cc31)CC2CCl (centres undefined) | 0.587 µM (active) | 1.07 µM (active) | 0.411 µM (active) | 0.735 µM (active) |  | 1.24 | 0.185 µM (active) | 0.716 µM (active) | 1.23 µM (inactive) | 0.0199 µM (active) | 1.45 µM (inactive) | 0.262 µM (active) | 0.169 µM (active) | 0.948 µM (active) | 0.466 µM (active) | 1.15 µM (inactive) | 0.121 µM (active) | 0.918 µM (active) | 0.953 µM (active) | 1.08 µM (active) |
| CSc1ccc(/C=C2/C[N+](C)(C)C/C(=C/c3ccc(SC)cc3)C2=O)cc1 | 20.1 µM (inactive) |  | 0.185 µM (active) | 5.18 µM (inactive) | 6.25 µM (inactive) | 47 | 3.56 µM (inactive) |  | 8.09 µM (inactive) | 2.49 µM (inactive) | 15.5 µM (inactive) |  | 13.7 µM (inactive) | 4.85 µM (inactive) | 8.89 µM (inactive) |  |  |  |  |  |
| CCCC(=O)N(C(=O)CCC)C1=C(Cl)C(=O)c2ccccc2C1=O | 4.42 µM (inactive) | 18.3 µM (inactive) | 5.66 µM (inactive) | 2.91 µM (inactive) |  | 2.1 | 2.09 µM (inactive) | 5.22 µM (inactive) | 3.72 µM (inactive) | 0.574 µM (active) | 4.04 µM (inactive) | 11.9 µM (inactive) | 9.98 µM (inactive) | 3.49 µM (inactive) | 6.25 µM (inactive) | 3.86 µM (inactive) | 14 µM (inactive) | 8.04 µM (inactive) | 4.63 µM (inactive) | 4.06 µM (inactive) |
